Measured values from patent US20210347709A1, “RADIOFLUORINATED GPC3-BINDING PEPTIDES FOR PET IMAGING OF HEPATOCELLULAR CARCINOMA” (University of Southern California, priority 2020, published 2021).

Assays:
[1] = Measurement of lipophilicity (Log P), 1-octanol/PBS partition; format: physicochemical; conditions: 1-octanol / PBS pH 7.4, mean ± SD, n = 4
Procedure: Measurement of Lipophilicity (Log P). Approximately 185 kBq of Al[^18F]F-GP2076 or Al[^18F]F-GP2633 in 0.5 ml of phosphate-buffered saline (PBS) (pH 7.4) was mixed with 0.5 ml of 1-octanol. The mixture was vigorously shaken for 1 min, and then centrifuged at 12,000 rpm for 5 min to partition the organic and aqueous layers. Aliquots of 0.2 ml each layer were taken and the radioactivity was determined by gamma counting (GC-1200, USTC Chuangxin Co. Ltd. Zonkia Branch, China). The distribution coefficient P was calculated as the ratio of radioactivity in the organic phase to that in the aqueous phase. The experiment was carried out in quadruplicate.

[2] = In vivo metabolic stability in HepG2 tumor-bearing mice; conditions: 1 h after intravenous injection
Procedure: In Vivo Metabolic Stability. HepG2 tumor-bearing mice (n=3/group) were intravenously injected with 5.55 MBq of Al[^18F]F-GP2076 or Al[^18F]F-GP2633. At 1 h after the injection, the mice were euthanized, and the HepG2 tumor, blood, liver, kidneys, and urine samples were collected. Briefly, the blood sample was immediately centrifuged for 5 min at 12,000 rpm. The HepG2 tumor, liver, and kidneys were homogenized and then centrifuged for 5 min at 12,000 rpm. The supernatant from each sample was passed through an ultrafiltration tube (Millipore, USA) and then centrifuged for 10 min at 12,000 rpm. The urine sample was diluted with 100 μl of PBS. The filtrate from each sample was injected into analytic HPLC. The HPLC eluents were collected with a fraction collector (one fraction/30 sec), and the radioactivity of each fraction was measured by gamma counting.

logP [1]: -2.1 ± 0.07
percentage of parent F-18 labeled peptide in HepG2 tumor [2]: 97.69±2.51%
percentage of parent F-18 labeled peptide in blood [2]: 96.68±1.55%
percentage of parent F-18 labeled peptide in kidneys [2]: 54.94±2.12%
percentage of parent F-18 labeled peptide in liver [2]: 96.06±0.54%
percentage of parent F-18 labeled peptide in urine [2]: 3.31±0.20%
SMILES: CC(C)C[C@H](NC(=O)[C@H](CCCNC(=N)N)NC(=S)Nc1ccc(CC2CN(CC(=O)O)CCN(CC(=O)O)CCN2CC(=O)O)cc1)C(=O)N[C@@H](CC(N)=O)C(=O)N[C@H](C(=O)NCC(=O)NCC(=O)N[C@H](C(=O)N[C@@H](Cc1ccc(O)cc1)C(=O)N[C@@H](Cc1ccccc1)C(=O)N[C@@H](CC(C)C)C(=O)N[C@H](C(=O)N[C@H](C(=O)N[C@@H](CCCNC(=N)N)C(=O)N[C@@H](CCC(N)=O)C(=O)O)[C@@H](C)O)[C@@H](C)O)[C@@H](C)O)C(C)C (single isomer, unassigned) [Al[^18F]F-GP2076]
